Patent US10870638B2, “Pyridazinone compound or its salt, and herbicide containing it” (ISHIHARA SANGYO KAISHA, LTD., priority 2016, dated 2020)

Experiments:
Experiment in all cases: Test Example 1: foliar treatment, growth inhibition rate on 14th day
Type in all cases: in vivo
Conditions in all cases: active ingredient amount 31 g/ha, 14th day after application
[1] = test system: italian ryegrass (Lolium multiflorum Lam.)
Excerpt: (§1) Upland field soil was put into a 1/300,000 hectare pot, and seeds of various plants were sown. When the respective plants reached predetermined leaf stage ((1) barnyardgrass (Echinochloa crus-[…].): 0.5 to 2.9 leaf stage, (2) crabgrass (Digitaria sanquinalis L.): 0.5 to 3.0 leaf stage, (3) green foxtail (Setaria viridis L.): 0.5 to 3.2 leaf stage, (4) wild oat (Avena fatua L.): 0.4 to 1.2 leaf stage, (5) italian ryegrass (Lolium multiflorum Lam.): 0.4 to 2.0 leaf stage, (6) redroot pigweed (Amaranthus retroflexus L.): cotyledon stage to 2.2 leaf stage, (7) rice (Oryza sativa L.): 0.2 to 2.7 leaf stage, (8) corn (Zea mays L.): 1.7 to 3.6 leaf stage, (9) wheat (Triticum aestivum L.): 1.3 to 2.3 leaf stage, (10) soybean (Glycine max Merr.); primary leaf stage), wettable powders or emulsifiable concentrates of the compounds of the present invention prepared in accordance with a conventional preparation method, were weighed so as to achieve the prescribed active ingredient amounts, and diluted with water in an amount corresponding to 1,000 liters per 1 hectare (containing 0.1 vol % of an agricultural spreader (surfactant WK manufactured by MARUWA BIOCHEMICAL Co., Ltd.)), and the spray solutions thus prepared were applied for foliar treatment by a small sprayer. On the 14th day after the application, the state of growth of the respective plants was visually observed, and the herbicidal effect was evaluated by a growth inhibition rate (%) of 0 (equivalent to the non-treated area) to 100 (complete kill).

[2] = test system: barnyardgrass (Echinochloa crus-qalli L.)
Excerpt: as §1

[3] = test system: rice (Oryza sativa L.)
Excerpt: as §1

[4] = test system: soybean (Glycine max Merr.)
Excerpt: as §1

[5] = test system: green foxtail (Setaria viridis L.)
Excerpt: as §1

[6] = test system: crabgrass (Digitaria sanquinalis L.)
Excerpt: as §1

[7] = test system: redroot pigweed (Amaranthus retroflexus L.)
Excerpt: as §1

[8] = test system: corn (Zea mays L.)
Excerpt: as §1

[9] = test system: wheat (Triticum aestivum L.)
Excerpt: as §1

[10] = test system: wild oat (Avena fatua L.)
Excerpt: as §1

[11] = visual, 0 = non-treated, 100 = complete kill

## Cc1ccc(Oc2nc3cc(Cl)ccc3o2)cc1-c1c(O)c(C)nn(C)c1=O [Compound 2-105]
[1]
  Growth inhibition rate (%) Italian ryegrass: 80%
[2]
  Growth inhibition rate (%) Barnyardgrass: 90%
[3]
  Growth inhibition rate (%) Rice: 35%
[4]
  Growth inhibition rate (%) Soybean: 25%
[5]
  Growth inhibition rate (%) Green foxtail: 90%
[6]
  Growth inhibition rate (%) Crabgrass: 95%
[7]
  Growth inhibition rate (%) Redroot pigweed: 0%
[8]
  Growth inhibition rate (%) Corn: 65%
[9]
  Growth inhibition rate (%) Wheat: 25%
[10]
  Growth inhibition rate (%) Wild oat: 75%

## CC(=O)Cn1ncc(O)c(-c2cc(Oc3ncc(C(F)(F)F)cc3Cl)ccc2C)c1=O [1-169]
[1]
  Growth inhibition rate (%) Italian ryegrass: 90%
[2]
  Growth inhibition rate (%) Barnyardgrass: 90%
[3]
  Growth inhibition rate (%) Rice: 10%
[4]
  Growth inhibition rate (%) Soybean: 0%
[5]
  Growth inhibition rate (%) Green foxtail: 99%
[6]
  Growth inhibition rate (%) Crabgrass: 95%
[7]
  Growth inhibition rate (%) Redroot pigweed: 20%
[8]
  Growth inhibition rate (%) Corn: 98%
[9]
  Growth inhibition rate (%) Wheat: 0%
[10]
  Growth inhibition rate (%) Wild oat: 90%

## Cc1ccc(Nc2ncc(C(F)(F)F)cc2Cl)cc1-c1c(O)c(C)nn(C)c1=O [1-144]
[1]
  Growth inhibition rate (%) Italian ryegrass: 0%
[2]
  Growth inhibition rate (%) Barnyardgrass: 30%
[3]
  Growth inhibition rate (%) Rice: 20%
[4]
  Growth inhibition rate (%) Soybean: 20%
[5]
  Growth inhibition rate (%) Green foxtail: 60%
[6]
  Growth inhibition rate (%) Crabgrass: 10%
[7]
  Growth inhibition rate (%) Redroot pigweed: 0%
[8]
  Growth inhibition rate (%) Corn: 10%
[9]
  Growth inhibition rate (%) Wheat: 0%
[10]
  Growth inhibition rate (%) Wild oat: 10%

## Cc1ccc(Oc2ccc3nc(Cl)cn3n2)cc1-c1c(O)c(C)nn(C)c1=O [Compound 2-193]
[1]
  Growth inhibition rate (%) Italian ryegrass: 0%
[2]
  Growth inhibition rate (%) Barnyardgrass: 70%
[3]
  Growth inhibition rate (%) Rice: 0%
[4]
  Growth inhibition rate (%) Soybean: 0%
[5]
  Growth inhibition rate (%) Green foxtail: 93%
[6]
  Growth inhibition rate (%) Crabgrass: 90%
[7]
  Growth inhibition rate (%) Redroot pigweed: 0%
[8]
  Growth inhibition rate (%) Corn: 65%
[9]
  Growth inhibition rate (%) Wheat: 0%
[10]
  Growth inhibition rate (%) Wild oat: 0%

## COC(=O)OC(C)Oc1cnn(C)c(=O)c1-c1cc(Oc2nc3ccc(Cl)cc3o2)ccc1C (centres unmarked) [Compound 2-178]
[1]
  Growth inhibition rate (%) Italian ryegrass: 98%
[2]
  Growth inhibition rate (%) Barnyardgrass: 100%
[3]
  Growth inhibition rate (%) Rice: 15%
[4]
  Growth inhibition rate (%) Soybean: 0%
[5]
  Growth inhibition rate (%) Green foxtail: 100%
[6]
  Growth inhibition rate (%) Crabgrass: 100%
[7]
  Growth inhibition rate (%) Redroot pigweed: 0%
[8]
  Growth inhibition rate (%) Corn: 83%
[9]
  Growth inhibition rate (%) Wheat: 75%
[10]
  Growth inhibition rate (%) Wild oat: 95%

## Cc1ccc(Oc2cnc3cc(Cl)ccc3n2)cc1-c1c(OC(=O)C(C)(C)C)c(C)nn(C)c1=O [Compound 3-42]
[1]
  Growth inhibition rate (%) Italian ryegrass: 95%
[2]
  Growth inhibition rate (%) Barnyardgrass: 100%
[3]
  Growth inhibition rate (%) Rice: 60%
[4]
  Growth inhibition rate (%) Soybean: 0%
[5]
  Growth inhibition rate (%) Green foxtail: 98%
[6]
  Growth inhibition rate (%) Crabgrass: 20%
[7]
  Growth inhibition rate (%) Redroot pigweed: 10%
[8]
  Growth inhibition rate (%) Corn: 30%
[9]
  Growth inhibition rate (%) Wheat: 20%
[10]
  Growth inhibition rate (%) Wild oat: 100%

## CCCCC(=O)Oc1c(C)nn(C)c(=O)c1-c1cc(Oc2ncc(C(F)(F)F)cc2Cl)ccc1C [1-135]
[1]
  Growth inhibition rate (%) Italian ryegrass: 100%
[2]
  Growth inhibition rate (%) Barnyardgrass: 100%
[3]
  Growth inhibition rate (%) Rice: 90%
[4]
  Growth inhibition rate (%) Soybean: 0%
[5]
  Growth inhibition rate (%) Green foxtail: 100%
[6]
  Growth inhibition rate (%) Crabgrass: 99%
[7]
  Growth inhibition rate (%) Redroot pigweed: 0%
[8]
  Growth inhibition rate (%) Corn: 98%
[9]
  Growth inhibition rate (%) Wheat: 100%
[10]
  Growth inhibition rate (%) Wild oat: 100%

## C#CCOc1c(C)nn(C)c(=O)c1-c1cc(Oc2cnc3cc(Cl)ccc3n2)ccc1C [Compound 3-77]
[1]; [11]
  Growth inhibition rate (%) Italian ryegrass: 85%
[2]; [11]
  Growth inhibition rate (%) Barnyardgrass: 100%
[3]; [11]
  Growth inhibition rate (%) Rice: 0%
[4]; [11]
  Growth inhibition rate (%) Soybean: 0%
[5]; [11]
  Growth inhibition rate (%) Green foxtail: 100%
[6]; [11]
  Growth inhibition rate (%) Crabgrass: 90%
[7]; [11]
  Growth inhibition rate (%) Redroot pigweed: 0%
[8]; [11]
  Growth inhibition rate (%) Corn: 30%
[9]; [11]
  Growth inhibition rate (%) Wheat: 25%
[10]; [11]
  Growth inhibition rate (%) Wild oat: 60%
